Consider 4 compounds from patent US20150099800A1, “NOVEL LIPASE INHIBITORS, REPORTER SUBSTRATES AND USES THEREOF” (Northeastern University, priority 2012, published 2015).

As usually defined, the inhibition is the change of the read-out against control, counted positive when it falls. Usually IC50 stands for the midpoint of a concentration-inhibition curve.

Where two headings read alike, the source gives them in different places.

For one test, the target named is T1, mDAGLα (Mus musculus, UniProt Q6WQJ1).
T1 sequence (Q6WQJ1 1-1044): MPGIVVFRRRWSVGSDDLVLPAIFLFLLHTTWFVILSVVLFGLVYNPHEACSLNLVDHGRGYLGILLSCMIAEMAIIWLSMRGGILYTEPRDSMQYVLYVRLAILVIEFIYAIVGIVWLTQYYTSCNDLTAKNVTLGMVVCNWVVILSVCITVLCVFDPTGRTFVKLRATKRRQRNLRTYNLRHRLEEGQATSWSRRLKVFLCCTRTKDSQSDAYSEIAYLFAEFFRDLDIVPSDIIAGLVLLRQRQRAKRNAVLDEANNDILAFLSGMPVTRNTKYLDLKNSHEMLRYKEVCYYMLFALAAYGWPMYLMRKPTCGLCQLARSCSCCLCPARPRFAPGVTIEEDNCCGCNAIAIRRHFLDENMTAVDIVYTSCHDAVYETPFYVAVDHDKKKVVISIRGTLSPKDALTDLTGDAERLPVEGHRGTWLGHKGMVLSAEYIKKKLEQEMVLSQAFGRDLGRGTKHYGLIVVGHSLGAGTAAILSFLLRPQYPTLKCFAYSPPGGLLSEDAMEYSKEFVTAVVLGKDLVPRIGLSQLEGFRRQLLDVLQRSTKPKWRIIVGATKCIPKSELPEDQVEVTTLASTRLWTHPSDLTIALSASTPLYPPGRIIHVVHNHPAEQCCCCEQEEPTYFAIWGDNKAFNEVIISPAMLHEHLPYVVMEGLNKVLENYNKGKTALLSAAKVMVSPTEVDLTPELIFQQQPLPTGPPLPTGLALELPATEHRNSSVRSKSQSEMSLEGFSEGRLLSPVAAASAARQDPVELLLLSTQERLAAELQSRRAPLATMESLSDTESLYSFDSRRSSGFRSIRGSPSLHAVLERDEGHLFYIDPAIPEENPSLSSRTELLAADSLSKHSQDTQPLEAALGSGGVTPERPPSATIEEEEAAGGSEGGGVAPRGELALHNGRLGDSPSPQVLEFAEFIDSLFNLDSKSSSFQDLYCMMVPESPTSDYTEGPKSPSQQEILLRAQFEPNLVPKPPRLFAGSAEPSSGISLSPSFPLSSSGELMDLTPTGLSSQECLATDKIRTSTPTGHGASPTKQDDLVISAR
The test is described as follows: Radio-TLC assay with [14C]SAG substrate, mDAGLα. The conditions noted are these: for potency for mDAGLα relative to analogs of (S)-α-amino acids: 10 nM to 10 μM.

Another test concerns the target T2, hDAGLα (Homo sapiens, UniProt Q9Y4D2).
T2 sequence (Q9Y4D2 1-1042): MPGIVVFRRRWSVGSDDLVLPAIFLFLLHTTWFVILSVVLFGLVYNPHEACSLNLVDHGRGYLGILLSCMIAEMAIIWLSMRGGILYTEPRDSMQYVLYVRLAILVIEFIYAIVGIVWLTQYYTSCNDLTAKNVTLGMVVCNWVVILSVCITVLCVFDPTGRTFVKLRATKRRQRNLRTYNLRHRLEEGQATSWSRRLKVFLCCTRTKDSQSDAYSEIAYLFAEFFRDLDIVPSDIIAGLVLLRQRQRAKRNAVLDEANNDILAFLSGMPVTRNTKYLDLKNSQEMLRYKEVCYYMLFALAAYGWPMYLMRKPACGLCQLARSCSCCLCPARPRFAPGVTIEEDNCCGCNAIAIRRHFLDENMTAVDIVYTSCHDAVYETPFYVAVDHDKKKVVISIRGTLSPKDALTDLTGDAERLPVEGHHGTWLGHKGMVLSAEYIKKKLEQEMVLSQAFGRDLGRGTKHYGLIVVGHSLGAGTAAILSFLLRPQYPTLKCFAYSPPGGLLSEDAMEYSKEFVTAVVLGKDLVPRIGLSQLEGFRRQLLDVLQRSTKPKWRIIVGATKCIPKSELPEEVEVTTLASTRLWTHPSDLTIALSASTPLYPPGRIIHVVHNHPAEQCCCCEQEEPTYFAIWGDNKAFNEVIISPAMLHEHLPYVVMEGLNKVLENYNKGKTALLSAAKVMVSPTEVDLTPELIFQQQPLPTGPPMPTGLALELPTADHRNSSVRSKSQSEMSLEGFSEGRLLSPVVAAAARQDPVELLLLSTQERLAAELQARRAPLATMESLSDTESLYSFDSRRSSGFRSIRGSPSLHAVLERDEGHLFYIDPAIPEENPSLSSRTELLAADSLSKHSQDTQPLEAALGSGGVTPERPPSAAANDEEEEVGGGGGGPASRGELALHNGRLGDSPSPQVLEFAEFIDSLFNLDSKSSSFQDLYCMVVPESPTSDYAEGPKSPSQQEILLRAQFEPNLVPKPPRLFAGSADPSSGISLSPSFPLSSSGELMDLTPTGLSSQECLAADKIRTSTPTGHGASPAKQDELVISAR

The next test has as its target T3, rFAAH (Rattus norvegicus, UniProt P97612).
T3 construct: His (N); made in house; host or cells: E. coli (cell line provided by the Cravatt group)
T3 sequence (P97612 30-579 limits assumed): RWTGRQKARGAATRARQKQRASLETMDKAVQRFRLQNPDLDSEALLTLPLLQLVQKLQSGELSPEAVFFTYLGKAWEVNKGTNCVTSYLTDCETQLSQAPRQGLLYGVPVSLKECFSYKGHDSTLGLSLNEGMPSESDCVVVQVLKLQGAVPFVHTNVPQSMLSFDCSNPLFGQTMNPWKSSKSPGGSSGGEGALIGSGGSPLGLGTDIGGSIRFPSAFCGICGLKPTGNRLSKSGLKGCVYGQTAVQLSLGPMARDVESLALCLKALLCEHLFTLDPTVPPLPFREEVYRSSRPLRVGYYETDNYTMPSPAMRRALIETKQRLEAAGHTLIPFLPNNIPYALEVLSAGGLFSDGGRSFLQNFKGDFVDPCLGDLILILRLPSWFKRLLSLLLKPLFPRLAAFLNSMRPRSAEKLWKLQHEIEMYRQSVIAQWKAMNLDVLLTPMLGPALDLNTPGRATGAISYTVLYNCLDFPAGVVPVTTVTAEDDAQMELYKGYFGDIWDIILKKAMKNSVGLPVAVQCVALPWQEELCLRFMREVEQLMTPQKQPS
As to the kind of experiment: rFAAH coumarin substrate fluorescence assay. The class given is biochemical.

Test [1] relates to Lipoprotein Lipase (Bacterial). The class given is biochemical, Pseudomonas sp.
[2] abbreviates: 10 μM, 0.05% Triton X-100 present.

Regarding `CCCCCCCCCCC[C@@H](C[C@@H]1OC(=O)[C@H]1CCCCCC)OC(=O)[C@H](CC(C)C)NC=O` [Compound 3, tetrahydrolipstatin], on mDAGLα (read-out: mDAGLα inhibition at 10 nM (%)), the inhibition at 0.01 µM worked out at 55%. On mDAGLα (read-out: mDAGLα inhibition at 100 nM (%)), the inhibition at 0.1 µM worked out at 72%. Besides, on hDAGLα (10 μM), the “inhibition of hDAGLα at 10 μM” value is “complete inhibition”. At rFAAH (read-out: rFAAH inhibition at 10 μM (%)), the inhibition at 10 µM was 6%. The “inhibition of bacterial lipoprotein lipase, FRET” value in test [1] (preliminary studies) was “potent inhibition”. Also, the IC50 in test [1] (reporter compound (17), read-out: apparent IC50 with lipoprotein lipase, FRET assay) was roughly 0.1 µM.
In the case of `CCCCCCCCCCCC(CC1OC(=O)C1CCCCCC)OC(=O)C(NC=O)C(C)CC` (stereo not drawn) [Compound 6], at mDAGLα, the “mDAGLα inhibition at 10 nM (%)” value is listed as 33%, the “potency for mDAGLα relative to analogs of (S)-α-amino acids” value is reported as “clearly less potent”, the “mDAGLα inhibition at 100 nM (%)” value is 29% and the “mDAGLα inhibition at 1000 nM (%)” value came out at 69%. Moreover, at mDAGLα (10000 nM), the “mDAGLα inhibition at 10000 nM (%)” value stood at 85%. Moreover, at hDAGLα (setting [2]), the “hDAGLα inhibition at 10 μM TLC (with Triton X-100) (%)” value (from here on “hDAGLα inhibition at 10 μM TLC … (%)”) is “(78^A) %”. Further, on rFAAH (10 μM), the “rFAAH inhibition at 10 μM (%)” value came out at 28%. Moreover, in test [1] (10 μM), the “Lipoprotein Lipase (Bacterial) inhibition at 10 μM (%)” value is listed as 86%.
As to `CCCCCCCCCCC[C@@H](C[C@@H]1OC(=O)[C@H]1CCCCCC)OC(=O)[C@H](NC=O)[C@@H](C)CC` [Compound 7], on mDAGLα, the “mDAGLα inhibition at 10 nM (%)” value is given as 19%, the “potency for mDAGLα relative to analogs of (S)-α-amino acids” value is on record as “clearly less potent”, the “mDAGLα inhibition at 100 nM (%)” value came to 51% and the “mDAGLα inhibition at 1000 nM (%)” value is given as 75%. Further, the “mDAGLα inhibition at 10000 nM (%)” value at mDAGLα (10000 nM) was 90%. In addition, the “hDAGLα inhibition at 10 μM TLC … (%)” value at hDAGLα (setting [2]) was “(86^A) %”. Also, the “rFAAH inhibition at 10 μM (%)” value at rFAAH (10 μM) is listed as 0%. Besides, in test [1] (10 μM), the “Lipoprotein Lipase (Bacterial) inhibition at 10 μM (%)” value was 68%.
Consider `O=C(Oc1ccc([N+](=O)[O-])cc1)N1CCC(C(O)(c2ccc3c(c2)OCO3)c2ccc3c(c2)OCO3)CC1` [JZL184], for which the “mDAGLα inhibition at 10000 nM (%)” value on mDAGLα was 3%. Further, at hDAGLα, the “hDAGLα inhibition at 10 μM TLC … (%)” value is on record as “(37^B) %” and the “inhibition of hDAGLα in radio-TLC assays” value was “poor inhibitors”. Further, the “rFAAH inhibition at 10 μM (%)” value on rFAAH is 97^E %. Further, in test [1], the “Lipoprotein Lipase (Bacterial) inhibition at 10 μM (%)” value turned out to be 36%.
